Assay results as given in the supplement of paper PMC8092582.
Counter-ions that a name gives are not always drawn. ± gives the standard deviation of the averaged measurements.

Test system: HeLa
Test: cell viability (CellTiter-Glo) relative to median of lowest-dilution wells of all drugs (fraction); higher = more viable cells
Procedure: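 HeLa control and CRISPR DDX11 knockout cells were seeded in 384-well plates and incubated for 72 h with each of 64 […] drugs at six concentrations. Viability was read with CellTiter-Glo and normalised to the median of the lowest (6th) dilution wells of all drugs. Two biological replicates (BR1, BR2) are averaged; the concentration unit is not stated.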

[1] = drug concentration (unit not stated): 0.04, genotype: DDX11 knockout
[2] = drug concentration (unit not stated): 0.04, genotype: control (DDX11 wild type)
[3] = drug concentration (unit not stated): 0.12, genotype: DDX11 knockout
[4] = drug concentration (unit not stated): 0.12, genotype: control (DDX11 wild type)
[5] = drug concentration (unit not stated): 0.37, genotype: DDX11 knockout
[6] = drug concentration (unit not stated): 0.37, genotype: control (DDX11 wild type)
[7] = drug concentration (unit not stated): 1.11, genotype: DDX11 knockout
[8] = drug concentration (unit not stated): 1.11, genotype: control (DDX11 wild type)
[9] = drug concentration (unit not stated): 3.33, genotype: DDX11 knockout
[10] = drug concentration (unit not stated): 3.33, genotype: control (DDX11 wild type)
[11] = drug concentration (unit not stated): 10, genotype: DDX11 knockout
[12] = drug concentration (unit not stated): 10, genotype: control (DDX11 wild type)
[13] = drug concentration (unit not stated): 0.01, genotype: DDX11 knockout
[14] = drug concentration (unit not stated): 0.01, genotype: control (DDX11 wild type)

Compound	cell viability [1]	cell viability [2]	cell viability [3]	cell viability [4]	cell viability [5]	cell viability [6]	cell viability [7]	cell viability [8]	cell viability [9]	cell viability [10]	cell viability [11]	cell viability [12]	cell viability [13]	cell viability [14]	cell viability (drug concentration (unit not stated): 30, genotype: DDX11 knockout)	cell viability (drug concentration (unit not stated): 30, genotype: control (DDX11 wild type))
CO[C@@H](C(=O)N1Cc2[nH]nc(NC(=O)c3ccc(N4CCN(C)CC4)cc3)c2C1)c1ccccc1	0.971 ± 0.036	0.956 ± 0.032	0.877 ± 0.023	0.943 ± 0.18	0.906 ± 0.032	0.943 ± 0.13	0.744 ± 0.091	0.771 ± 0.065	0.624 ± 0.11	0.645 ± 0.046	0.466 ± 0.043	0.58 ± 0.1	–	–	–	–
CC[C@]1(O)C[C@@H]2CN(CCc3c([nH]c4ccccc34)[C@@](C(=O)OC)(c3cc4c(cc3OC)N(C)[C@H]3[C@@](O)(C(=O)OC)[C@H](OC(C)=O)[C@]5(CC)C=CCN6CC[C@]43[C@@H]65)C2)C1 [Vinblastine]	0.538 ± 0.36	0.799 ± 0.44	0.374 ± 0.092	0.441 ± 0.2	0.392 ± 0.0058	0.31 ± 0.042	0.3923 ± 0.00082	0.355 ± 0.12	0.401 ± 0.042	0.359 ± 0.089	–	–	0.751 ± 0.37	0.802 ± 0.21	–	–
CNC(=O)c1cccc(-c2ccc3c(N4CCOC[C@@H]4C)nc(N4CCOC[C@@H]4C)nc3n2)c1 [Vistusertib (AZD2014)]	0.902 ± 0.082	0.938 ± 0.15	0.777 ± 0.13	0.973 ± 0.3	0.668 ± 0.16	0.917 ± 0.29	0.449 ± 0.081	0.637 ± 0.16	0.356 ± 0.03	0.533 ± 0.17	0.344 ± 0.048	0.436 ± 0.17	–	–	–	–
C[C@@H](Nc1cc(F)cc(F)c1)c1cc(C(=O)N(C)C)cc2c(=O)cc(N3CCOCC3)oc12 [AZD8186]	0.961 ± 0.075	1.01 ± 0.036	0.946 ± 0.098	1.01 ± 0.027	0.887 ± 0.049	0.952 ± 0.076	0.847 ± 0.075	0.92 ± 0.12	0.764 ± 0.082	0.887 ± 0.17	0.654 ± 0.13	0.908 ± 0.19	–	–	–	–
CC(=O)c1c(C)c2cnc(Nc3ccc(N4CCNCC4)cn3)nc2n(C2CCCC2)c1=O [Palbociclib]	–	–	1.02 ± 0.084	1.017 ± 0.00052	1.0721 ± 0.001	1.01 ± 0.017	1.009 ± 0.0063	1.02 ± 0.025	1.03 ± 0.054	1.01 ± 0.022	0.9 ± 0.0099	0.986 ± 0.11	–	–	0.658 ± 0.045	0.893 ± 0.26
Nc1cc(C(F)(F)F)c(-c2cc(N3CCOCC3)nc(N3CCOCC3)n2)cn1 [Buparlisib (BKM-120)]	1.01 ± 0.023	1.01 ± 0.039	0.963 ± 0.035	0.999 ± 0.046	0.881 ± 0.18	0.92 ± 0.2	0.625 ± 0.13	0.772 ± 0.3	0.248 ± 0.08	0.247 ± 0.11	0.045 ± 0.0024	0.0382 ± 0.001	–	–	–	–
O=c1[nH]cc(F)c(=O)[nH]1 [Adrucil (Fluorouracil)]	1 ± 0.034	0.976 ± 0.016	1.03 ± 0.046	1 ± 0.031	1.06 ± 0.046	1.03 ± 0.032	1.01 ± 0.073	1.05 ± 0.23	0.928 ± 0.26	1.02 ± 0.45	0.817 ± 0.14	0.945 ± 0.37	–	–	–	–
CCS(=O)(=O)Nc1ccc2c(c1)/C(=C(/Nc1ccc(CN3CCCCC3)cc1)c1ccccc1)C(=O)N2 [Hesperadin]	0.981 ± 0.038	0.9913 ± 0.0085	0.85 ± 0.077	0.995 ± 0.26	0.79 ± 0.011	0.966 ± 0.21	0.696 ± 0.026	0.838 ± 0.12	–	–	–	–	1.038 ± 0.0037	1.02 ± 0.011	–	–
CCn1nc(C2CCN(C(=O)CCO)CC2)nc1-c1cnc(N)c(-c2nnc(C(C)(C)C)o2)n1 [AZD8835]	1.08 ± 0.046	1.07 ± 0.014	0.987 ± 0.09	1.05 ± 0.027	0.908 ± 0.098	0.988 ± 0.078	0.876 ± 0.059	0.98 ± 0.12	0.803 ± 0.077	0.996 ± 0.057	0.785 ± 0.052	1.05 ± 0.03	–	–	–	–
Nc1ccn([C@@H]2O[C@H](CO)[C@@H](O)[C@@H]2O)c(=O)n1 [Cytarabine]	1 ± 0.016	1.02 ± 0.058	0.987 ± 0.12	1.02 ± 0.096	0.728 ± 0.11	0.994 ± 0.21	0.682 ± 0.14	0.907 ± 0.41	–	–	–	–	1.05 ± 0.017	1.02 ± 0.028	–	–
CCc1cnn2c(NCc3ccc[n+]([O-])c3)cc(N3CCCC[C@H]3CCO)nc12 [Dinaciclib]	0.189 ± 0.0066	0.232 ± 0.063	0.182 ± 0.011	0.239 ± 0.068	0.171 ± 0.019	0.264 ± 0.096	0.169 ± 0.0065	0.254 ± 0.097	–	–	–	–	0.119 ± 0.011	0.0976 ± 0.048	–	–
CC1(C)CCC(c2ccc(Cl)cc2)=C(CN2CCN(c3ccc(C(=O)NS(=O)(=O)c4ccc(N[C@H](CCN5CCOCC5)CSc5ccccc5)c(S(=O)(=O)C(F)(F)F)c4)cc3)CC2)C1 [ABT-263 (Navitoclax)]	1.04 ± 0.045	0.983 ± 0.041	1 ± 0.021	1.02 ± 0.076	1.04 ± 0.014	1.022 ± 0.0018	0.976 ± 0.043	1.0084 ± 0.00083	1.02 ± 0.048	1.06 ± 0.058	0.841 ± 0.14	0.894 ± 0.22	–	–	–	–
Cn1cnc2c(F)c(Nc3ccc(Br)cc3Cl)c(C(=O)NOCCO)cc21 [Selumetinib (AZD6244)]	0.991 ± 0.022	0.985 ± 0.059	0.963 ± 0.029	0.957 ± 0.085	0.9 ± 0.078	0.95 ± 0.15	0.902 ± 0.082	0.955 ± 0.12	0.855 ± 0.067	0.935 ± 0.22	0.744 ± 0.13	0.913 ± 0.38	–	–	–	–
Nc1nc(Cl)nc2c1ncn2[C@H]1C[C@H](O)[C@@H](CO)O1 [Cladribine]	1.04 ± 0.035	1.04 ± 0.052	1.09 ± 0.077	1.2 ± 0.25	0.935 ± 0.024	1.06 ± 0.25	0.487 ± 0.34	0.468 ± 0.15	0.135 ± 0.12	0.103 ± 0.056	–	–	0.96 ± 0.03	0.977 ± 0.015	–	–
COc1cccc2c1C(=O)c1c(O)c3c(c(O)c1C2=O)C[C@@](O)(C(=O)CO)C[C@@H]3O[C@H]1C[C@H](N)[C@@H](O)[C@H](C)O1 [Epirubicin Hydrochloride]	0.89 ± 0.23	0.967 ± 0.084	0.596 ± 0.37	0.902 ± 0.42	0.304 ± 0.39	0.55 ± 0.72	0.0326 ± 0.0056	0.164 ± 0.21	0.0161 ± 0.003	0.0225 ± 0.011	–	–	1.02 ± 0.021	1.04 ± 0.05	–	–
